From patent publication US20100099561A1, “HETEROBICYCLIC ALKYLTHIO-BRIDGED ISOXAZOLINES” (E.I. DU PONT DE NEMOURS AND COMPANY, priority 2008, published 2010)

Assays:
Type in all cases: in vivo
[1] = test system: barnyardgrass (Echinochloa crus-galli); experiment: Test A preemergence, barnyardgrass; details: 0 to 100 scale (0 no effect, 100 complete control)
Summary of the method: (§1)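 Sow seeds in loam–sand blend; spray soil directly (pre) and treat emerged one- to two-leaf plants 2–10 cm tall (post) with compound in surfactant-containing non-phytotoxic solvent. Keep in greenhouse about ten days. Score injury visually against controls from 0 to 100.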

[2] = test system: morningglory (Ipomoea spp.); experiment: Test A preemergence, morningglory; details: 0 to 100 scale (0 no effect, 100 complete control)
Summary of the method: as §1

[3] = test system: barnyardgrass (Echinochloa crus-galli); experiment: Test A postemergence, barnyardgrass; details: 0 to 100 scale (0 no effect, 100 complete control)
Summary of the method: as §1

[4] = test system: barnyardgrass (Echinochloa crus-galli); experiment: Test B flooded paddy test, barnyardgrass; details: Flood
Summary of the method: (§2)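 Compounds were added directly to paddy water over 2-leaf-stage plants in pots flooded 3 cm above soil, water depth maintained. Visual injury scored against controls after 13 to 15 days in greenhouse, 0 (none) to 100 (complete control); dash indicates no result.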

corn (Zea mays) [5] = experiment: Test A preemergence, corn; details: 0 to 100 scale (0 no effect, 100 complete control)
Summary of the method: as §1

rice (Oryza sativa) = experiment: Test B flooded paddy test, rice; details: Flood, scale 0 to 100
Summary of the method: as §2

[6] = test system: velvetleaf (Abutilon theophrasti); experiment: Test A postemergence, velvetleaf; details: 0 to 100 scale (0 no effect, 100 complete control)
Summary of the method: as §1

[7] = test system: pigweed (Amaranthus retroflexus); experiment: Test A preemergence, pigweed; details: 0 to 100 scale (0 no effect, 100 complete control)
Summary of the method: as §1

[8] = test system: large crabgrass (Digitaria sanguinalis); experiment: Test A preemergence, large crabgrass; details: 0 to 100 scale (0 no effect, 100 complete control)
Summary of the method: as §1

[9] = test system: pigweed (Amaranthus retroflexus); experiment: Test A postemergence, pigweed; details: 0 to 100 scale (0 no effect, 100 complete control)
Summary of the method: as §1

[10] = test system: giant foxtail (Setaria faberi); experiment: Test A preemergence, giant foxtail; details: 0 to 100 scale (0 no effect, 100 complete control)
Summary of the method: as §1

[11] = test system: morningglory (Ipomoea spp.); experiment: Test A postemergence, morningglory; details: 0 to 100 scale (0 no effect, 100 complete control)
Summary of the method: as §1

[12] = test system: giant foxtail (Setaria faberi); experiment: Test A postemergence, giant foxtail; details: 0 to 100 scale (0 no effect, 100 complete control)
Summary of the method: as §1

[13] = test system: ducksalad (Heteranthera limosa); experiment: Test B flooded paddy test, ducksalad; details: Flood, scale 0 to 100
Summary of the method: as §2

[14] = test system: velvetleaf (Abutilon theophrasti); experiment: Test A preemergence, velvetleaf; details: 0 to 100 scale (0 no effect, 100 complete control)
Summary of the method: as §1

[15] = test system: wheat (Triticum aestivum); experiment: Test A preemergence, wheat; details: 0 to 100 scale (0 no effect, 100 complete control)
Summary of the method: as §1

[16] = test system: umbrella sedge (Cyperus difformis); experiment: Test B flooded paddy test, umbrella sedge; details: Flood, scale 0 to 100
Summary of the method: as §2

[17] = test system: large crabgrass (Digitaria sanguinalis); experiment: Test A postemergence, large crabgrass; details: 0 to 100 scale (0 no effect, 100 complete control)
Summary of the method: as §1

[18] = test system: wheat (Triticum aestivum); experiment: Test A postemergence, wheat; details: 0 to 100 scale (0 no effect, 100 complete control)
Summary of the method: as §1

corn (Zea mays) [19] = experiment: Test A postemergence, corn; details: 0 to 100 scale (0 no effect, 100 complete control)
Summary of the method: as §1

[20] = 250 g ai/ha, scale 0 to 100 (0 no effect, 100 complete control)

Structure (SMILES): CCn1c(=O)c(CS(=O)(=O)C2=NOC(C)(C)C2)nc2ccccc21 [Compound 28]
- Plant response rating, Barnyardgrass ([1]; 125 g ai/ha): 0
- Plant response rating, Barnyardgrass ([1]; 500 g ai/ha): 10
- Plant response rating, Morningglory ([2]; 125 g ai/ha): 0
- Plant response rating, Morningglory ([2]; 500 g ai/ha): 0
- Plant response rating, Barnyardgrass ([3]; 125 g ai/ha): 30
- Plant response rating, Barnyardgrass ([3]; 500 g ai/ha): 40
- Plant response rating, Barnyardgrass ([4]; 31 g ai/ha, scale 0 to 100): 0
- Plant response rating, Barnyardgrass ([4]; 62 g ai/ha, scale 0 to 100): 0
- Plant response rating, Barnyardgrass ([4]; 125 g ai/ha, scale 0 to 100): 0
- Plant response rating, Barnyardgrass [4, 20]: 0
- Plant response rating, Corn (corn (Zea mays) [5]; 125 g ai/ha): 0
- Plant response rating, Corn (corn (Zea mays) [5]; 500 g ai/ha): 0
- Plant response rating, Rice (rice (Oryza sativa); 31 g ai/ha): 0
- Plant response rating, Rice (rice (Oryza sativa); 62 g ai/ha): 0
- Plant response rating, Rice (rice (Oryza sativa); 125 g ai/ha): 0
- Plant response rating, Rice (rice (Oryza sativa); 250 g ai/ha): 0
- Plant response rating, Velvetleaf ([6]; 125 g ai/ha): 0
- Plant response rating, Velvetleaf ([6]; 500 g ai/ha): 0
- Plant response rating, Pigweed ([7]; 125 g ai/ha): 0
- Plant response rating, Pigweed ([7]; 500 g ai/ha): 0
- Plant response rating, Crabgrass, Large ([8]; 125 g ai/ha): 40
- Plant response rating, Crabgrass, Large ([8]; 500 g ai/ha): 50
- Plant response rating, Pigweed ([9]; 125 g ai/ha): 0
- Plant response rating, Pigweed ([9]; 500 g ai/ha): 0
- Plant response rating, Foxtail, Giant ([10]; 125 g ai/ha): 0
- Plant response rating, Foxtail, Giant ([10]; 500 g ai/ha): 20
- Plant response rating, Morningglory ([11]; 125 g ai/ha): 0
- Plant response rating, Morningglory ([11]; 500 g ai/ha): 0
- Plant response rating, Foxtail, Giant ([12]; 125 g ai/ha): 0
- Plant response rating, Foxtail, Giant ([12]; 500 g ai/ha): 0
- Plant response rating, Ducksalad ([13]; 31 g ai/ha): 0
- Plant response rating, Ducksalad ([13]; 62 g ai/ha): 0
- Plant response rating, Ducksalad ([13]; 125 g ai/ha): 0
- Plant response rating, Ducksalad ([13]; 250 g ai/ha): 0
- Plant response rating, Velvetleaf ([14]; 125 g ai/ha): 0
- Plant response rating, Velvetleaf ([14]; 500 g ai/ha): 0
- Plant response rating, Wheat ([15]; 125 g ai/ha): 0
- Plant response rating, Wheat ([15]; 500 g ai/ha): 0
- Plant response rating, Sedge, Umbrella ([16]; 31 g ai/ha): 0
- Plant response rating, Sedge, Umbrella ([16]; 62 g ai/ha): 0
- Plant response rating, Sedge, Umbrella ([16]; 125 g ai/ha): 0
- Plant response rating, Sedge, Umbrella ([16]; 250 g ai/ha): 0
- Plant response rating, Crabgrass, Large ([17]; 125 g ai/ha): 0
- Plant response rating, Crabgrass, Large ([17]; 500 g ai/ha): 50
- Plant response rating, Wheat ([18]; 125 g ai/ha): 0
- Plant response rating, Wheat ([18]; 500 g ai/ha): 0
- Plant response rating, Corn (corn (Zea mays) [19]; 125 g ai/ha): 0
- Plant response rating, Corn (corn (Zea mays) [19]; 500 g ai/ha): 0

Structure (SMILES): CCn1c(=O)c(C[S+]([O-])C2=NOC(C)(C)C2)nc2ccccc21 (centres unmarked) [Compound 29]
- Plant response rating, Barnyardgrass ([1]; 125 g ai/ha): 0
- Plant response rating, Barnyardgrass ([1]; 500 g ai/ha): 0
- Plant response rating, Morningglory ([2]; 125 g ai/ha): 0
- Plant response rating, Morningglory ([2]; 500 g ai/ha): 0
- Plant response rating, Barnyardgrass ([3]; 125 g ai/ha): 10
- Plant response rating, Barnyardgrass ([3]; 500 g ai/ha): 20
- Plant response rating, Barnyardgrass ([4]; 31 g ai/ha, scale 0 to 100): 0
- Plant response rating, Barnyardgrass ([4]; 62 g ai/ha, scale 0 to 100): 0
- Plant response rating, Barnyardgrass ([4]; 125 g ai/ha, scale 0 to 100): 0
- Plant response rating, Barnyardgrass [4, 20]: 0
- Plant response rating, Corn (corn (Zea mays) [5]; 125 g ai/ha): 0
- Plant response rating, Rice (rice (Oryza sativa); 31 g ai/ha): 0
- Plant response rating, Rice (rice (Oryza sativa); 62 g ai/ha): 0
- Plant response rating, Rice (rice (Oryza sativa); 125 g ai/ha): 0
- Plant response rating, Rice (rice (Oryza sativa); 250 g ai/ha): 0
- Plant response rating, Velvetleaf ([6]; 125 g ai/ha): 0
- Plant response rating, Velvetleaf ([6]; 500 g ai/ha): 0
- Plant response rating, Pigweed ([7]; 125 g ai/ha): 0
- Plant response rating, Pigweed ([7]; 500 g ai/ha): 0
- Plant response rating, Crabgrass, Large ([8]; 125 g ai/ha): 0
- Plant response rating, Crabgrass, Large ([8]; 500 g ai/ha): 0
- Plant response rating, Pigweed ([9]; 125 g ai/ha): 0
- Plant response rating, Pigweed ([9]; 500 g ai/ha): 0
- Plant response rating, Foxtail, Giant ([10]; 125 g ai/ha): 0
- Plant response rating, Foxtail, Giant ([10]; 500 g ai/ha): 0
- Plant response rating, Morningglory ([11]; 125 g ai/ha): 0
- Plant response rating, Morningglory ([11]; 500 g ai/ha): 0
- Plant response rating, Foxtail, Giant ([12]; 125 g ai/ha): 0
- Plant response rating, Foxtail, Giant ([12]; 500 g ai/ha): 0
- Plant response rating, Ducksalad ([13]; 31 g ai/ha): 0
- Plant response rating, Ducksalad ([13]; 62 g ai/ha): 0
- Plant response rating, Ducksalad ([13]; 125 g ai/ha): 0
- Plant response rating, Ducksalad ([13]; 250 g ai/ha): 20
- Plant response rating, Velvetleaf ([14]; 125 g ai/ha): 0
- Plant response rating, Velvetleaf ([14]; 500 g ai/ha): 0
- Plant response rating, Wheat ([15]; 125 g ai/ha): 0
- Plant response rating, Wheat ([15]; 500 g ai/ha): 0
- Plant response rating, Sedge, Umbrella ([16]; 31 g ai/ha): 0
- Plant response rating, Sedge, Umbrella ([16]; 62 g ai/ha): 0
- Plant response rating, Sedge, Umbrella ([16]; 125 g ai/ha): 0
- Plant response rating, Sedge, Umbrella ([16]; 250 g ai/ha): 0
- Plant response rating, Crabgrass, Large ([17]; 125 g ai/ha): 0
- Plant response rating, Crabgrass, Large ([17]; 500 g ai/ha): 0
- Plant response rating, Wheat ([18]; 125 g ai/ha): 0
- Plant response rating, Wheat ([18]; 500 g ai/ha): 0
- Plant response rating, Corn (corn (Zea mays) [19]; 125 g ai/ha): 0
- Plant response rating, Corn (corn (Zea mays) [19]; 500 g ai/ha): 0
